Measurements from publication PMC10465233, “Lys-urea-Aad, Lys-urea-Cmc and Lys-urea-Cms as potential pharmacophores for the design of PSMA-targeted radioligands to reduce off-target uptake in kidneys and salivary glands” (Theranostics, 2023).
Read-outs that look alike come from different tables or passages of the source.

What was measured:
PSMA [1] = target: T1, PSMA (Homo sapiens, UniProt Q04609); set-up: method as in PMID 36168623; conditions: LNCaP cells; cited from earlier work
T1 construct: host or cells: LNCaP prostate cancer cells

PSMA [2] = target: T1, PSMA; experiment: In vitro competition binding assay, LNCaP cells, [^18F]DCFPyL as radioligand
Experimental: The LNCaP cells obtained from ATCC (via Cedarlane, Burlington, Canada) were cultured in RPMI 1640 medium supplemented with 10% FBS, penicillin (100 U/mL) and streptomycin (100 μg/mL) at 37 °C in a Panasonic Healthcare (Tokyo, Japan) MCO-19AIC humidified incubator containing 5% CO2. The cells were confirmed pathogen free by the IMPACT Rodent Pathogen Test (IDEXX BioAnalytics). Cells grown to 80-90% confluence were then washed with sterile PBS and collected after trypsinization. The cell concentration was counted in triplicate using a hemocytometer and a manual laboratory counter.
In vitro competition binding assays were conducted as previously reported using LNCaP prostate cancer cells and [^18F]DCFPyL as the radioligand [10]-[12],[14]. Briefly, LNCaP cells (400,000/well) were plated onto a 24-well poly-D-lysine coated plate for 48 h. Growth media was removed and replaced with HEPES buffered saline (50 mM HEPES, pH 7.5, 0.9% sodium chloride) and the cells were incubated for 1 h at 37 °C. [^18F]DCFPyL (0.1 nM) was added to each well (in triplicate) containing various concentrations (0.5 mM - 0.05 nM) of tested ligands. Non-specific binding was determined in the presence of 10 µM non-radiolabeled DCFPyL. The assay mixtures were further incubated for 1 h at 37 °C with gentle agitation. Then, the buffer and hot ligand were removed, and cells were washed twice with cold HEPES buffered saline. To harvest the cells, 400 µL of 0.25% trypsin solution was added to each well. Radioactivity was measured on an automatic gamma counter. Nonlinear regression analyses and Ki calculations were performed using the GraphPad Prism 7 software.

T1 sequence (Q04609 whole entry): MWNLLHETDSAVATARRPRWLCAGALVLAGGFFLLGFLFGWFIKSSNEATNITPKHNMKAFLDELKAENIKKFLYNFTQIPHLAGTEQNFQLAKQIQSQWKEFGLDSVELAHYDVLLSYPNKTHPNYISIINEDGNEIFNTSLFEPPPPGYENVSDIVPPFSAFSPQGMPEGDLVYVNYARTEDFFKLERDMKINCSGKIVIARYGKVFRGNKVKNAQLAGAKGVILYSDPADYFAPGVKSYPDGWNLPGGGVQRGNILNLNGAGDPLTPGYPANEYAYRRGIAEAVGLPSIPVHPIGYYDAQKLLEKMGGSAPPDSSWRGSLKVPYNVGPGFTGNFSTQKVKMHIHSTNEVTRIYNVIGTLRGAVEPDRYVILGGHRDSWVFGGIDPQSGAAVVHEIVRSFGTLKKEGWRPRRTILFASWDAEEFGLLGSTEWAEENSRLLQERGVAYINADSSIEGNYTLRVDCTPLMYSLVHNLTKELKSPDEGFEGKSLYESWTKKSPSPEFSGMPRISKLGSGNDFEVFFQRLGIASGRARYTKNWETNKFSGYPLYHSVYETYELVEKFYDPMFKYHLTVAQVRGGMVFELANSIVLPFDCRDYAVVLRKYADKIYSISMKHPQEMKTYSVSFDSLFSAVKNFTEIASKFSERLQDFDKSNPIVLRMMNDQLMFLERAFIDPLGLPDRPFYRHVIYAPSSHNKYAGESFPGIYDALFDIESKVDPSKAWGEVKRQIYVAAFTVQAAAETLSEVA

Q: With `O=C([O-])CN1CCN(CC(=O)[O-])CCN(CC(=O)NCC2CCC(C(=O)NC(Cc3c4ccccc4cc4ccccc34)C(=O)NCCCCC(NC(=O)NC(CCCC(=O)O)C(=O)O)C(=O)O)CC2)CCN(CC(=O)[O-])CC1.[Ga+3]` (stereo not shown) [Ga-HTK03149] as the molecule, how does the Ki (PSMA [1]) read?
A: The Ki was 6.99 ± 0.8 nM.

Q: Which Ki (PSMA [2]) does the source give for `O=C([O-])CN1CCN(CC(=O)[O-])CCN(CC(=O)NCC2CCC(C(=O)NC(Cc3c4ccccc4cc4ccccc34)C(=O)NCCCCC(NC(=O)NC(CSCC(=O)O)C(=O)O)C(=O)O)CC2)CCN(CC(=O)[O-])CC1.[Ga+3]` (stereo not shown) [Ga-HTK03177] here?
A: Its Ki is 5 ± 2.4 nM.

Q: With `O=C([O-])CN1CCN(CC(=O)[O-])CCN(CC(=O)NCC2CCC(C(=O)NC(Cc3c4ccccc4cc4ccccc34)C(=O)NCCCCC(NC(=O)NC(COCC(=O)O)C(=O)O)C(=O)O)CC2)CCN(CC(=O)[O-])CC1.[Ga+3]` (stereo not shown) [Ga-HTK03187] as the molecule, how does the Ki (PSMA [2]) read?
A: Its Ki is 10.6 ± 2 nM.

Q: For `COc1ccc(CCCC(=O)NCC(=O)N[C@@H](CCCCNC(=O)CN2CCN(CC(=O)[O-])CCN(CC(=O)[O-])CCN(CC(=O)[O-])CC2)C(=O)NC[C@H]2CC[C@H](C(=O)N[C@@H](Cc3c4ccccc4cc4ccccc34)C(=O)NCCCC[C@H](NC(=O)N[C@@H](CCCC(=O)O)C(=O)O)C(=O)O)CC2)cc1.[Lu+3]` [Lu-HTK03170], which Ki (PSMA [2]) is on record?
A: The Ki was 1.6 ± 0.4 nM.
